{"source": "ChEMBL document CHEMBL3046429", "about": "“Synthesis, molecular modeling study, preliminary antibacterial, and antitumor evaluation of N-substituted naphthalimides and their structural analogues” (2013)", "assay_type_in_all_cases": "functional", "key": {"[1]": {"test_system": "SF-295", "experiment": "Growth inhibition of Homo sapiens (human) SF295 cells at 10 uM after 48 hr by coulter counter analysis", "settings": "SF-295, 48 h, read-out: GI"}, "[2]": {"test_system": "Malme-3M", "experiment": "Growth inhibition of Homo sapiens (human) MALME-3M cells at 10 uM after 48 hr by coulter counter analysis", "settings": "read-out: GI"}, "[3]": {"test_system": "M14", "experiment": "Growth inhibition of Homo sapiens (human) M14 cells at 10 uM after 48 hr by coulter counter analysis", "settings": "M14, 48 h, read-out: GI"}, "[4]": {"test_system": "TK-10", "experiment": "Growth inhibition of Homo sapiens (human) TK10 cells at 10 uM after 48 hr by coulter counter analysis", "settings": "TK-10, 48 h, read-out: GI"}, "[5]": {"test_system": "LOX IMVI", "experiment": "Growth inhibition of Homo sapiens (human) LOXIMVI cells at 10 uM after 48 hr by coulter counter analysis", "settings": "read-out: GI"}, "[6]": {"test_system": "CAKI-1", "experiment": "Growth inhibition of Homo sapiens (human) CAKI-1 cells at 10 uM after 48 hr by coulter counter analysis", "settings": "CAKI-1, 48 h, read-out: GI"}, "[7]": {"test_system": "ACHN", "experiment": "Growth inhibition of Homo sapiens (human) ACHN cells at 10 uM after 48 hr by coulter counter analysis", "settings": "read-out: GI"}, "[8]": {"test_system": "786-0", "experiment": "Growth inhibition of Homo sapiens (human) 786-0 cells at 10 uM after 48 hr by coulter counter analysis", "settings": "786-0, 48 h, read-out: GI"}, "[9]": {"test_system": "A498", "experiment": "Growth inhibition of Homo sapiens (human) A498 cells at 10 uM after 48 hr by coulter counter analysis", "settings": "A498, 48 h, read-out: GI"}, "[10]": {"test_system": "RPMI-8226", "experiment": "Growth inhibition of Homo sapiens (human) RPMI8226 cells at 10 uM after 48 hr by coulter counter analysis", "settings": "RPMI-8226, 48 h, read-out: GI"}, "[11]": {"test_system": "MOLT-4", "experiment": "Growth inhibition of Homo sapiens (human) MOLT4 cells at 10 uM after 48 hr by coulter counter analysis", "settings": "MOLT-4, 48 h, read-out: GI"}, "[12]": {"test_system": "CCRF-CEM", "experiment": "Growth inhibition of Homo sapiens (human) CCRF-CEM cells at 10 uM after 48 hr by coulter counter analysis", "settings": "read-out: GI"}, "[13]": {"test_system": "SNB-19", "experiment": "Growth inhibition of Homo sapiens (human) SNB19 cells at 10 uM after 48 hr by coulter counter analysis", "settings": "SNB-19, 48 h, read-out: GI"}, "[14]": {"test_system": "U-251", "experiment": "Growth inhibition of Homo sapiens (human) U251 cells at 10 uM after 48 hr by coulter counter analysis", "settings": "U-251, 48 h, read-out: GI"}, "[15]": {"test_system": "SF-539", "experiment": "Growth inhibition of Homo sapiens (human) SF539 cells at 10 uM after 48 hr by coulter counter analysis", "settings": "SF-539, 48 h, read-out: GI"}, "[16]": {"test_system": "NCI-H23", "experiment": "Growth inhibition of Homo sapiens (human) NCI-H23 cells at 10 uM after 48 hr by coulter counter analysis", "settings": "NCI-H23, 48 h, read-out: GI"}, "[17]": {"test_system": "NCI-H460", "experiment": "Growth inhibition of Homo sapiens (human) NCI-H460 cells at 10 uM after 48 hr by coulter counter analysis", "settings": "NCI-H460, 48 h, read-out: GI"}, "[18]": {"test_system": "NCI-H226", "experiment": "Growth inhibition of Homo sapiens (human) NCI-H226 cells at 10 uM after 48 hr by coulter counter analysis", "settings": "NCI-H226, 48 h, read-out: GI"}, "[19]": {"test_system": "HL-60(TB)", "experiment": "Growth inhibition of Homo sapiens (human) HL-60(TB) cells at 10 uM after 48 hr by coulter counter analysis", "settings": "HL-60, 48 h, read-out: GI"}, "[20]": {"test_system": "PC-3", "experiment": "Growth inhibition of Homo sapiens (human) PC3 cells at 10 uM after 48 hr by coulter counter analysis", "settings": "PC-3, 48 h, read-out: GI"}, "[21]": {"test_system": "DU-145", "experiment": "Growth inhibition of Homo sapiens (human) DU145 cells at 10 uM after 48 hr by coulter counter analysis", "settings": "DU-145, 48 h, read-out: GI"}, "[22]": {"test_system": "SK-OV-3", "experiment": "Growth inhibition of Homo sapiens (human) SKOV3 cells at 10 uM after 48 hr by coulter counter analysis", "settings": "SK-OV-3, 48 h, read-out: GI"}, "[23]": {"test_system": "OVCAR-5", "experiment": "Growth inhibition of Homo sapiens (human) OVCAR5 cells at 10 uM after 48 hr by coulter counter analysis", "settings": "OVCAR-5, 48 h, read-out: GI"}, "[24]": {"test_system": "OVCAR-4", "experiment": "Growth inhibition of Homo sapiens (human) OVCAR4 cells at 10 uM after 48 hr by coulter counter analysis", "settings": "OVCAR-4, 48 h, read-out: GI"}, "[25]": {"test_system": "OVCAR-3", "experiment": "Growth inhibition of Homo sapiens (human) OVCAR3 cells at 10 uM after 48 hr by coulter counter analysis", "settings": "OVCAR-3, 48 h, read-out: GI"}, "[26]": {"test_system": "IGROV-1", "experiment": "Growth inhibition of Homo sapiens (human) IGROV1 cells at 10 uM after 48 hr by coulter counter analysis", "settings": "IGROV-1, 48 h, read-out: GI"}, "[27]": {"test_system": "T47D", "experiment": "Growth inhibition of Homo sapiens (human) T47D cells at 10 uM after 48 hr by coulter counter analysis", "settings": "read-out: GI"}, "[28]": {"test_system": "MDA-MB-468", "experiment": "Growth inhibition of Homo sapiens (human) MDA-MB-468 cells at 10 uM after 48 hr by coulter counter analysis", "settings": "MDA-MB-468, 48 h, read-out: GI"}, "[29]": {"test_system": "Hs-578T", "experiment": "Growth inhibition of Homo sapiens (human) Hs 578T cells at 10 uM after 48 hr by coulter counter analysis", "settings": "read-out: GI"}, "[30]": {"test_system": "SW-620", "experiment": "Growth inhibition of Homo sapiens (human) SW620 cells at 10 uM after 48 hr by coulter counter analysis", "settings": "SW-620, 48 h, read-out: GI"}, "[31]": {"test_system": "KM12", "experiment": "Growth inhibition of Homo sapiens (human) KM12 cells at 10 uM after 48 hr by coulter counter analysis", "settings": "KM12, 48 h, read-out: GI"}, "[32]": {"test_system": "HT-29", "experiment": "Growth inhibition of Homo sapiens (human) HT-29 cells at 10 uM after 48 hr by coulter counter analysis", "settings": "HT-29, 48 h, read-out: GI"}, "[33]": {"test_system": "MCF7", "experiment": "Growth inhibition of Homo sapiens (human) MCF7 cells at 10 uM after 48 hr by coulter counter analysis", "settings": "MCF7, 48 h, read-out: GI"}, "[34]": {"test_system": "SNB-75", "experiment": "Growth inhibition of Homo sapiens (human) SNB75 cells at 10 uM after 48 hr by coulter counter analysis", "settings": "SNB-75, 48 h, read-out: GI"}, "[35]": {"test_system": "UO-31", "experiment": "Growth inhibition of Homo sapiens (human) UO31 cells at 10 uM after 48 hr by coulter counter analysis", "settings": "UO-31, 48 h, read-out: GI"}, "[36]": {"test_system": "HOP-92", "experiment": "Growth inhibition of Homo sapiens (human) HOP92 cells at 10 uM after 48 hr by coulter counter analysis", "settings": "HOP-92, 48 h, read-out: GI"}, "[37]": {"test_system": "Pseudomonas aeruginosa", "experiment": "Antibacterial activity against Pseudomonas aeruginosa assessed as growth inhibition after 24 hr by two-fold serial dilution method"}, "[38]": {"test_system": "Bacillus subtilis", "experiment": "Antibacterial activity against Bacillus subtilis assessed as growth inhibition after 24 hr by two fold serial dilution method"}}, "data": [{"smiles": "O=C1c2nccnc2C(=O)N1c1c(Cl)cc(Cl)cc1Cl", "values": [{"measurement": "inhibition of growth at 10 µM", "setting": "[1]", "result": -2.42, "unit": "%"}, {"measurement": "inhibition of growth at 10 µM", "setting": "[2]", "result": 21.1, "unit": "%"}, {"measurement": "inhibition of growth at 10 µM", "setting": "[3]", "result": 3.32, "unit": "%"}, {"measurement": "inhibition of growth at 10 µM", "setting": "[4]", "result": -4.45, "unit": "%"}, {"measurement": "inhibition of growth at 10 µM", "setting": "[5]", "result": -0.26, "unit": "%"}, {"measurement": "inhibition of growth at 10 µM", "setting": "[6]", "result": 18, "unit": "%"}, {"measurement": "inhibition of growth at 10 µM", "setting": "[7]", "result": -0.27, "unit": "%"}, {"measurement": "inhibition of growth at 10 µM", "setting": "[8]", "result": 2.39, "unit": "%"}, {"measurement": "inhibition of growth at 10 µM", "setting": "[9]", "result": 20.9, "unit": "%"}, {"measurement": "inhibition of growth at 10 µM", "setting": "[10]", "result": 4.32, "unit": "%"}, {"measurement": "inhibition of growth at 10 µM", "setting": "[11]", "result": 1.21, "unit": "%"}, {"measurement": "inhibition of growth at 10 µM", "setting": "[12]", "result": 3.38, "unit": "%"}, {"measurement": "inhibition of growth at 10 µM", "setting": "[13]", "result": -2.3, "unit": "%"}, {"measurement": "inhibition of growth at 10 µM", "setting": "[14]", "result": -7.03, "unit": "%"}, {"measurement": "inhibition of growth at 10 µM", "setting": "[15]", "result": 8.66, "unit": "%"}, {"measurement": "inhibition of growth at 10 µM", "setting": "[16]", "result": 0.61, "unit": "%"}, {"measurement": "inhibition of growth at 10 µM", "setting": "[17]", "result": -7.91, "unit": "%"}, {"measurement": "inhibition of growth at 10 µM", "setting": "[18]", "result": 9.41, "unit": "%"}, {"measurement": "inhibition of growth at 10 µM", "setting": "[19]", "result": 1.42, "unit": "%"}, {"measurement": "inhibition of growth at 10 µM", "setting": "[20]", "result": 22.7, "unit": "%"}, {"measurement": "inhibition of growth at 10 µM", "setting": "[21]", "result": 18.6, "unit": "%"}, {"measurement": "inhibition of growth at 10 µM", "setting": "[22]", "result": 4.55, "unit": "%"}, {"measurement": "inhibition of growth at 10 µM", "setting": "[23]", "result": -1.7, "unit": "%"}, {"measurement": "inhibition of growth at 10 µM", "setting": "[24]", "result": -0.64, "unit": "%"}, {"measurement": "inhibition of growth at 10 µM", "setting": "[25]", "result": -15.4, "unit": "%"}, {"measurement": "inhibition of growth at 10 µM", "setting": "[26]", "result": 7.24, "unit": "%"}, {"measurement": "inhibition of growth at 10 µM", "setting": "[27]", "result": 5.37, "unit": "%"}, {"measurement": "inhibition of growth at 10 µM", "setting": "[28]", "result": 17.8, "unit": "%"}, {"measurement": "inhibition of growth at 10 µM", "setting": "[29]", "result": 15.3, "unit": "%"}, {"measurement": "inhibition of growth at 10 µM", "setting": "[30]", "result": -7.54, "unit": "%"}, {"measurement": "inhibition of growth at 10 µM", "setting": "[31]", "result": 10.3, "unit": "%"}, {"measurement": "inhibition of growth at 10 µM", "setting": "[32]", "result": 4.24, "unit": "%"}, {"measurement": "inhibition of growth at 10 µM", "setting": "[33]", "result": 3.64, "unit": "%"}, {"measurement": "inhibition of growth at 10 µM", "setting": "[34]", "result": 47.4, "unit": "%"}, {"measurement": "inhibition of growth at 10 µM", "setting": "[35]", "result": 72.9, "unit": "%"}, {"measurement": "inhibition of growth at 10 µM", "setting": "[36]", "result": 57.1, "unit": "%"}, {"measurement": "MIC", "setting": "[37]", "result": 20, "unit": "µg/mL"}, {"measurement": "MIC", "setting": "[38]", "result": 20, "unit": "µg/mL"}]}]}
